Assays:
Experiment in all cases: relative viability (nuclei count vs DMSO), 5 days (fraction); higher = more cells survive
[1] = tested on: 201T
Method in brief: (§1)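 Dosing by pin tool came one day after lung cancer cell lines were seeded in 1536-well plates, using either one drug or a fixed anchor-drug dose plus five library-drug doses (not always all listed) in √10 steps. After 5 days, nuclei were counted on 4× images. Relative viability is treated-well nuclei count divided by vehicle-well nuclei count, and values are medians of duplicate plates.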

[2] = tested on: ABC-1
Method in brief: as §1

[3] = tested on: EBC-1
Method in brief: as §1

[4] = tested on: HCC-366
Method in brief: as §1

[5] = tested on: HCC-44
Method in brief: as §1

[6] = tested on: HCC-78
Method in brief: as §1

[7] = tested on: IA-LM
Method in brief: as §1

[8] = tested on: LK-2
Method in brief: as §1

[9] = tested on: LOU-NH91
Method in brief: as §1

[10] = tested on: NCI-H1437
Method in brief: as §1

[11] = tested on: NCI-H1648
Method in brief: as §1

[12] = tested on: NCI-H1651
Method in brief: as §1

[13] = tested on: NCI-H1734
Method in brief: as §1

[14] = tested on: NCI-H1944
Method in brief: as §1

[15] = tested on: NCI-H2023
Method in brief: as §1

[16] = tested on: NCI-H2085
Method in brief: as §1

[17] = tested on: NCI-H2087
Method in brief: as §1

[18] = tested on: NCI-H2170
Method in brief: as §1

[19] = tested on: NCI-H2228
Method in brief: as §1

[20] = tested on: NCI-H322M
Method in brief: as §1

[21] = tested on: NCI-H596
Method in brief: as §1

[22] = tested on: NCI-H647
Method in brief: as §1

[23] = tested on: PC-14
Method in brief: as §1

[24] = tested on: PC-3 [JPC-3]
Method in brief: as §1

[25] = tested on: SK-LU-1
Method in brief: as §1

Nc1cccc2c1CN(C1CCC(=O)NC1=O)C2=O (configuration not stated) [Lenalidomide] + O=C(c1cc(Cc2n[nH]c(=O)c3ccccc23)ccc1F)N1CCN(C(=O)C2CC2)CC1 [Olaparib] (partner 8 µM)
relative viability ([1]; first compound 0.253 µM): 0.847 | relative viability ([1]; first compound 0.8 µM): 0.865 | relative viability ([1]; first compound 2.53 µM): 0.864 | relative viability ([1]; first compound 8 µM): 0.92 | relative viability ([2]; first compound 0.253 µM): 0.654 | relative viability ([2]; first compound 0.8 µM): 0.764 | relative viability ([2]; first compound 2.53 µM): 0.861 | relative viability ([2]; first compound 8 µM): 1.03 | relative viability ([3]; first compound 0.253 µM): 0.708 | relative viability ([3]; first compound 0.8 µM): 0.603 | relative viability ([3]; first compound 2.53 µM): 0.823 | relative viability ([3]; first compound 8 µM): 0.691 | relative viability ([4]; first compound 0.253 µM): 0.328 | relative viability ([4]; first compound 0.8 µM): 0.309 | relative viability ([4]; first compound 2.53 µM): 0.373 | relative viability ([4]; first compound 8 µM): 0.394 | relative viability ([5]; first compound 0.253 µM): 0.981 | relative viability ([5]; first compound 0.8 µM): 0.873 | relative viability ([5]; first compound 2.53 µM): 1.02 | relative viability ([5]; first compound 8 µM): 1.05 | relative viability ([6]; first compound 0.253 µM): 0.861 | relative viability ([6]; first compound 0.8 µM): 0.858 | relative viability ([6]; first compound 2.53 µM): 0.87 | relative viability ([6]; first compound 8 µM): 0.814 | relative viability ([7]; first compound 0.253 µM): 0.874 | relative viability ([7]; first compound 0.8 µM): 0.799 | relative viability ([7]; first compound 2.53 µM): 0.777 | relative viability ([7]; first compound 8 µM): 0.728 | relative viability ([8]; first compound 0.253 µM): 0.881 | relative viability ([8]; first compound 0.8 µM): 0.413 | relative viability ([8]; first compound 2.53 µM): 0.571 | relative viability ([8]; first compound 8 µM): 0.387 | relative viability ([9]; first compound 0.253 µM): 0.934 | relative viability ([9]; first compound 0.8 µM): 0.948 | relative viability ([9]; first compound 2.53 µM): 0.906 | relative viability ([9]; first compound 8 µM): 0.898 | relative viability ([10]; first compound 0.253 µM): 0.612 | relative viability ([10]; first compound 0.8 µM): 0.629 | relative viability ([10]; first compound 2.53 µM): 0.638 | relative viability ([10]; first compound 8 µM): 0.677 | relative viability ([11]; first compound 0.253 µM): 0.883 | relative viability ([11]; first compound 2.53 µM): 1.12 | relative viability ([11]; first compound 8 µM): 0.922 | relative viability ([12]; first compound 0.253 µM): 0.153 | relative viability ([12]; first compound 0.8 µM): 0.169 | relative viability ([12]; first compound 2.53 µM): 0.219 | relative viability ([12]; first compound 8 µM): 0.194 | relative viability ([13]; first compound 0.253 µM): 0.305 | relative viability ([13]; first compound 0.8 µM): 0.582 | relative viability ([13]; first compound 2.53 µM): 0.651 | relative viability ([13]; first compound 8 µM): 0.576 | relative viability ([14]; first compound 0.253 µM): 0.43 | relative viability ([14]; first compound 2.53 µM): 0.443 | relative viability ([14]; first compound 8 µM): 0.415 | relative viability ([15]; first compound 0.253 µM): 0.46 | relative viability ([15]; first compound 0.8 µM): 0.469 | relative viability ([15]; first compound 2.53 µM): 0.492 | relative viability ([15]; first compound 8 µM): 0.453 | relative viability ([16]; first compound 0.253 µM): 0.793 | relative viability ([16]; first compound 0.8 µM): 0.796 | relative viability ([16]; first compound 2.53 µM): 0.841 | relative viability ([16]; first compound 8 µM): 0.752 | relative viability ([17]; first compound 0.253 µM): 0.562 | relative viability ([17]; first compound 2.53 µM): 0.689 | relative viability ([17]; first compound 8 µM): 0.685 | relative viability ([18]; first compound 0.253 µM): 0.57 | relative viability ([18]; first compound 0.8 µM): 0.611 | relative viability ([18]; first compound 2.53 µM): 0.67 | relative viability ([18]; first compound 8 µM): 0.553 | relative viability ([19]; first compound 0.253 µM): 0.544 | relative viability ([19]; first compound 0.8 µM): 0.502 | relative viability ([19]; first compound 2.53 µM): 0.753 | relative viability ([19]; first compound 8 µM): 0.583 | relative viability ([20]; first compound 0.253 µM): 0.831 | relative viability ([20]; first compound 0.8 µM): 0.736 | relative viability ([20]; first compound 2.53 µM): 0.886 | relative viability ([20]; first compound 8 µM): 0.945 | relative viability ([21]; first compound 0.253 µM): 0.758 | relative viability ([21]; first compound 0.8 µM): 0.705 | relative viability ([21]; first compound 2.53 µM): 0.77 | relative viability ([21]; first compound 8 µM): 0.77 | relative viability ([22]; first compound 0.253 µM): 0.525 | relative viability ([22]; first compound 0.8 µM): 0.543 | relative viability ([22]; first compound 2.53 µM): 0.65 | relative viability ([22]; first compound 8 µM): 0.566 | relative viability ([23]; first compound 0.253 µM): 0.302 | relative viability ([23]; first compound 0.8 µM): 0.243 | relative viability ([23]; first compound 2.53 µM): 0.374 | relative viability ([23]; first compound 8 µM): 0.436 | relative viability ([24]; first compound 0.253 µM): 1.12 | relative viability ([24]; first compound 0.8 µM): 1.1 | relative viability ([24]; first compound 2.53 µM): 1.32 | relative viability ([24]; first compound 8 µM): 1.38 | relative viability ([25]; first compound 0.253 µM): 0.409 | relative viability ([25]; first compound 0.8 µM): 0.542 | relative viability ([25]; first compound 2.53 µM): 0.615 | relative viability ([25]; first compound 8 µM): 0.392
